From publication PMC10704437, “Sterol-activated amyloid beta fibril formation” (The Journal of Biological Chemistry, 2023)
Where “and” joins values, the source holds several entries; their conditions need not be identical. Equal values may be shown once. Read-outs that look alike come from different tables or passages of the source.

What was measured:
Aβ42 [1] = biological target: T1, Aβ42 (Homo sapiens, UniProt P05067); test: Sterol binding to Aβ42, pre-steady-state stopped-flow fluorescence; conditions: for kon: calculated by dividing koff by Kd; for koff: determined in DHE displacement studies, stopped-flow, 25 °C
T1 construct: Small red spheres mark the Aβ42 peptide C-terminal residue, A42; purchased Sigma-Aldrich Corp
T1 sequence (P05067 672-713 limits assumed): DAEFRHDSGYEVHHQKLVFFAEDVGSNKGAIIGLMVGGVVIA
Procedure: To establish the rates at which Aβ42•ligand complexes form and dissociate, the rate constants governing the binding reactions were determined. DHE binding was monitored in real time using a stopped-flow fluorimeter via binding-induced changes in DHE fluorescence. The reactions are pseudo first order in [ligand] and kobs was obtained by least-squares fitting progress curves to a single-exponential equation ([44], [45]). kobs values were determined (in triplicate) at a series of Aβ42 concentrations and the averaged values are plotted versus [Aβ42] in Figure 2B. kon and koff are given by the slope and intercept of the kobs-versus-[Aβ42] plot obtained by linear least-square fitting ([44], [45]). […] The rate constants are compiled in Table 1.
Figure 2 Sterol binding to Aβ42—pre-steady state studies.A, DHE binding. Reactions were monitored via binding induced changes in DHE fluorescence using a stopped-flow fluorimeter (λex = 325, λem > 400 nm). Fluorescence intensity, I, is reported relative to the intensity in the absence of ligand, Io. […] C was rapidly mixed (1:1, v/v) with a solution identical except that Aβ42 was replaced by DHE (40 nM, 2.7 × Kd). The bindingreaction curve shown is the average of five independent progress curves. The averaged curve was a least-squares fit to a single-exponential equation and the resulting best fit (indicated by the red line) yielded kobs. B, DHE kon and koff. kobs values obtained as in Panel A were determined in triplicate at varying Aβ42 concentrations and the averaged values are shown plotted versus [Aβ42]. kon and koff are given by the slope and intercept of a linear least-squares fit of the kobsversus [Aβ42] plot. C and D, CH and CS displacement reactions.
Pre-steady-state binding of sterols to Aβ42 was monitored via the binding-induced change in DHE fluorescence (λex = 325, λem > 400 nm) using an Applied Photophysics SX20 stopped-flow fluorimeter.
Three progress curves (each an average of five independently obtained curves) were collected at five separate Aꞵ42 concentrations. The observed rate constant (kobs) at a given [Aβ42] was obtained by fitting the average of the three curves to a single-exponential equation using Pro-K software ([75]). kon and koff were obtained from the slopes and intercepts predicted by linear least-squares analysis of kobs versus [Aβ42] plots.
C. […] Progress curves were determined in triplicate and koff was obtained by least-squares fitting the averaged curves to a single-exponential equation using Pro-K.

Aβ42 [2] = biological target: T1, Aβ42; test: Aβ42 fibril formation versus CS percentage (ThT); format: biochemical; conditions: [CS]+[CH] 20 μM, Aβ42 1.0 μM
Procedure: To experimentally assess the potential impact of CS on fibril formation in vivo, fibril synthesis was monitored over a series of CS/CH ratios that span the physiological range.
Figure 8 Aβ42fibril formation versus CS percentage. Fibril formation was detected via binding-induced changes in ThT fluorescence (λex = 450 nm, λem = 482 nm). Reaction conditions: Aβ42 (1.0 μM), CS percent (as indicated), [CS] + [CH] (20 μM), ThT (30 μM), DMSO (0.5 % v/v), K2PO4 (50 mM), pH 7.4, 25 °C ± 2 deg. C. Progress curves were performed in triplicate and averaged data are shown. Lines passing through the data represent the behavior predicted by the NEF model using the Table 2 rate constants.

Aβ42 [3] = biological target: T1, Aβ42; test: Aβ42 fibril formation monitored by ThT fluorescence, NEF model fitting; format: biochemical; conditions: for Nucleation rate constant, NEF model: NEF fit of fibril formation progress curves; for Nucleation rate constant, NEF model / Elongation rate constant, forward / Elongation rate constant, reverse / Fragmentation rate constant: Aβ42 1.0 μM, ligand at saturation; for Elongation rate constant, forward / Elongation rate constant, reverse / Fragmentation rate constant: NEF fit; for increase of nucleation rate constant relative to the unliganded peptide: from NEF nucleation rate constants
Description: Reactions were initiated by the addition of ligand (at saturation) or buffer (control) to a fresh solution of Aβ42 and ThT (see Fig. 3 Legend). Such progress curves are often fit using a generalized sigmoidal function and compared on the basis of lag-time length and elongation-phase slope. Here, progress curves are fit numerically to the Nucleation-Elongation-Fragmentation (NEF) model ([51], [52]), using Copasi ([53]). Numerical modeling allows one to assess whether a particular mechanism adequately predicts experimental behavior and provides rate constants for the steps of the mechanism that can be compared across peptide•ligand combinations to identify where and to what extent ligands induce change.
Figure 3 Formation of CH•, CS•, and unliganded Aβ42fibrils.A, fibril formation. Fibril formation was monitored via the fluorescence increase (λex = 450 nm, λem = 482 nm) associated with the binding of ThT, which binds Aβ oligomers ≥5-mers. […] C. Progress curves were performed in triplicate, averaged, and fit numerically using the NEF polymerization model (see Results and discussion).
The NEF model assumes a slow, energetically unfavorable event generates a polymerization nucleus that rapidly adds monomers (at the elongation rate) to form oligomers. The reaction accelerates in a geometric fashion as oligomer fragmentation produces new nuclei. The tenets of the model are embodied in Equations (1), (2), (3), which form the basis of the Copasi model ([53]).(1) 2m⇆knucrevknucforn (2) m+n⇆kelrevkelforo+n (3) o→kfragn where m is monomer concentration, n is the concentration of surfaces capable of adding monomer, and o is the concentration of peptides that are in the interior of the polymer and thus cannot add monomers. knuc, kel, and kfrag are the nucleation, elongation, and fragmentation rate constants.
Fibril formation was monitored via the binding-induced change in ThT fluorescence (λex = 450 nm, λem = 482 nm) ([76]). […] C. Reagents (peptide, CH, CS, and ThT) were prepared immediately prior to use. CH and CS were solubilized in neat DMSO. Progress curves were determined in triplicate, and data were fit using the Nucleation-Fragmentation-Elongation (NEF) model (see Results and discussion).

[4] = set-up: method as in PMID 4525165; conditions: reported in 1973; cited from earlier work

| Kd (Aβ42 [1]; ratio of rate constants, read-out: koff/kon) | SMILES | Kd (Aβ42 [1]) | kon (Aβ42 [1]) | koff (Aβ42 [1]) | fibril formation lag-time (Aβ42 [2]; 0.1% CS) | fibril formation lag-time (Aβ42 [2]; 1% CS) | fibril formation lag-time (Aβ42 [2]; 10% CS) | CS/CH nucleation rate constant ratio, experimental (Aβ42 [3]; CS•Aβ42 versus CH•Aβ42, calculated using Table 2 nucleation rate constants) | Nucleation rate constant, NEF model (Aβ42 [3]) | Elongation rate constant, forward (Aβ42 [3]) | Elongation rate constant, reverse (Aβ42 [3]) | Fragmentation rate constant (Aβ42 [3]) | increase of nucleation rate constant relative to the unliganded peptide (Aβ42 [3]) | critical micelle concentration (CMC) [4] |
| --- | --- | --- | --- | --- | --- | --- | --- | --- | --- | --- | --- | --- | --- | --- |
| – | CC(C)CCC[C@@H](C)[C@H]1CC[C@H]2[C@@H]3CC=C4C[C@@H](OS(=O)(=O)O)CC[C@]4(C)[C@H]3CC[C@]12C [CS, cholesterol 3-sulfate] | 0.036 µM | 2.4e+07 M⁻¹ s⁻¹ | 0.88 s⁻¹ | shortens by several hours | nearly halved | approaches that of pure CS | 261 fold and 260 fold | 1.8 (0.3) × 10^−11 nM^−1 s^−1 | 860 (60) μM^−1 s^−1 | 85 (1) s^−1 | 4.3 (0.7) × 10^−11 s^−1 | ~13,000 fold | – |
| 0.12 µM | CC(C)CCC[C@@H](C)[C@H]1CC[C@H]2[C@@H]3CC=C4C[C@@H](O)CC[C@]4(C)[C@H]3CC[C@]12C [CH, cholesterol] | – | 2.1e+07 M⁻¹ s⁻¹ | 2.5 s⁻¹ | – | – | – | – | 6.9 (0.2) × 10^−14 nM^−1 s^−1 | 830 (20) μM^−1 s^−1 | 98 (1) s^−1 | 5.6 (0.3) × 10^−11 s^−1 | ~49 fold | 25 to 40 nM |
